Drawing on ChEMBL document CHEMBL1134300, “Oxindole-based inhibitors of cyclin-dependent kinase 2 (CDK2): design, synthesis, enzymatic activities, and X-ray crystallographic analysis” (J Med Chem, 2001), this text covers IC50 for 21 molecules.

Molecules are shown by their SMILES. pIC50: −log10 of the molar value.

In assay [1] the target is Cyclin-dependent kinase 2 (Homo sapiens, UniProt P24941).
Description: Inhibitory activity against human cyclin-dependent kinase 2 (CDK2)
Assay [2] deals with Cyclin-dependent kinase 1 (Homo sapiens, UniProt P06493).
Chain of Cyclin-dependent kinase 1 (P06493 whole entry): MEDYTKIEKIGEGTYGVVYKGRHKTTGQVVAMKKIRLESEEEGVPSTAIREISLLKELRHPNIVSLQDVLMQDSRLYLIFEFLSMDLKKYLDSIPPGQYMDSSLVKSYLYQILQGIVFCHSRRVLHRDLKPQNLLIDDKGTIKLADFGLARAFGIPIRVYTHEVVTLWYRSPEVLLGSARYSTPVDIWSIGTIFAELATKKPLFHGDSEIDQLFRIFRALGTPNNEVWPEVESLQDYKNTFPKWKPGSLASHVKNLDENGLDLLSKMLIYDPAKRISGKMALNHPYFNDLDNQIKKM
Description: Inhibitory activity against human cyclin-dependent kinase 1 (CDK1)

With `Cc1ccc2c(c1Cl)C(=NNc1ccc(S(N)(=O)=O)cc1)C(=O)N2`, the figures for the negative logarithm of the IC50 (pIC50) in assay [1] and in assay [2] were 7.89 and 6.60, respectively.
As to `CC(C)(CO)CNC(=O)c1ccc2c(c1)C(=NNc1ccc(S(N)(=O)=O)cc1)C(=O)N2` [GW301784X], the pIC50 in assay [1] was 8.17; in assay [2], 7.22.
In the same order, the values of `CCc1cccc2c1C(=NNc1ccc(S(N)(=O)=O)cc1)C(=O)N2` are 8.10 and 7.34.
Turning to `CN(C)S(=O)(=O)c1ccc(N/C=C2\C(=O)Nc3ccc4ncsc4c32)cc1`, the negative-log IC50 (pIC50) in assay [1] was 8.34; in assay [2], 7.30.
Taken in the same sequence, the figures for `CC(C)Oc1cccc2c1C(=NNc1ccc(S(N)(=O)=O)cc1)C(=O)N2` were 8.47 and 7.39.
In the same order, the values of `CC(=O)NS(=O)(=O)c1ccc(N/C=C2\C(=O)Nc3ccc4ncsc4c32)cc1` are 7.12 and 6.04.
Turning to `CS(=O)(=O)c1ccc(N/C=C2\C(=O)Nc3ccc4ncsc4c32)cc1`, the negative logarithm of the IC50 (pIC50) in assay [1] was 8.24; in assay [2], 7.41.
Taken in the same sequence, the figures for `C/C(Nc1ccc(S(N)(=O)=O)cc1)=C1/C(=O)Nc2ccc(Cl)cc21` were 7.66 and 6.66.
On to `NS(=O)(=O)c1ccc(NN=C2C(=O)Nc3ccc(C(=O)NCc4cccnc4)cc32)cc1`, for which the figures for the pIC50 in assay [1] and in assay [2] were 8.68 and 7.29, respectively.
For the molecule `CNS(=O)(=O)Cc1ccc(N/C=C2\C(=O)Nc3ccc4ncsc4c32)cc1`, the negative-log IC50 (pIC50) is 7.59 in assay [1] and 6.77 in assay [2].
As for `CC(C)=Cc1cccc2c1C(=NNc1ccc(S(N)(=O)=O)cc1)C(=O)N2` [GW396574X], the pIC50 in assay [1] was 8.82; in assay [2] it was 7.82.
Taken in the same sequence, the figures for `NS(=O)(=O)c1ccc(/N=N/c2c(O)[nH]c3cccc(I)c23)cc1` were 8.34 and 6.96.
Taken in the same sequence, the figures for `Cc1ccc2c(c1)C(=NNc1ccc(S(N)(=O)=O)cc1)C(=O)N2` [GW275944X] were 7.34 and 6.48.
On to `CC(C)Cc1cccc2c1C(=NNc1ccc(S(N)(=O)=O)cc1)C(=O)N2`, for which the pIC50 in assay [1] is 8.92; in assay [2], 7.72.
In the same order, the values of `NS(=O)(=O)c1ccc(NN=C2C(=O)Nc3ccc(F)cc32)cc1` are 7.47 and 6.54.
Taken in the same sequence, the figures for `NS(=O)(=O)c1ccc(NN=C2C(=O)Nc3cccc(CCc4ccncc4)c32)cc1` were 7.68 and 6.54.
In the same order, the values of `NC(=O)c1ccc2c(c1)C(=NNc1ccc(S(N)(=O)=O)cc1)C(=O)N2` are 8.35 and 8.55.
As to `NS(=O)(=O)c1ccc(NN=C2C(=O)Nc3cccc(Oc4ccccc4)c32)cc1`, the negative logarithm of the IC50 (pIC50) is 7.89 in assay [1] and 6.54 in assay [2].
Regarding `NS(=O)(=O)c1ccc(N/C=C2\C(=O)Nc3ccc4ncccc4c32)cc1`, the pIC50 in assay [1] is 8.82; in assay [2], 7.82.
Take `CC(C)COC(=O)c1ccc2c(c1)/C(=C/Nc1ccc(S(N)(=O)=O)cc1)C(=O)N2` [GW416981X]: the negative logarithm of the IC50 (pIC50) in assay [1] was 8.52; in assay [2], 7.72.
Taken in the same sequence, the figures for `Cc1cc(Cl)cc2c1NC(=O)/C2=C\Nc1ccc(S(N)(=O)=O)cc1` were less than 5.00 and less than 5.00.
